T/C data for 15 compounds are collected here from PubChem BioAssay AID248 (DTP/NCI, 2004).

The structures appear in SMILES notation. Where “and” joins values, the source holds several entries; their conditions need not be identical. Equal values may be shown once. Toxic doses and inconclusive results are not listed. Square brackets hold non-standard residues; d marks the D form. Peptide text beside a SMILES is read from it. * marks the point of attachment. ξ: configuration not given here. Cbz = O=C(OCc1ccccc1)*; ξNle = CCCCC(N)C(=O)O

For this test, the system named is L1210 leukemia ip in BDF1 mice, survival T/C. Description: NCI In Vivo Anticancer Drug Screen. Data for tumor model L1210 Leukemia (intraperitoneal) in B6D2F1 (BDF1) mice. The conditions noted are these: endpoint: mean survival time, higher = longer survival. Here is the method:
The antitumor activity of compounds was measured in mice bearing transplantable tumors. Survival or tumor size were measured and the results are expressed as the measurement made in the treated group (T) divided by the measurement made in the vehicle treated control group (C). The tumor model used in this assay is L1210 Leukemia (intraperitoneal) in B6D2F1 (BDF1) mice

Where [1] appears, read: dose: 100.0 mg/kg/injection, schedule: Q01DX001 (ip), vehicle: saline.
The mark [2] stands for this setting: dose: 200.0 mg/kg/injection, schedule: Q01DX001 (ip), vehicle: saline.
[3] abbreviates: dose: 400.0 mg/kg/injection, schedule: Q01DX001 (ip), vehicle: saline.
[4] abbreviates: dose: 100.0 mg/kg/injection, schedule: Q04DX003 (ip), vehicle: saline with Tween-80.
[5] abbreviates: dose: 200.0 mg/kg/injection, schedule: Q04DX003 (ip), vehicle: saline with Tween-80.
Where [6] appears, read: dose: 400.0 mg/kg/injection, schedule: Q04DX003 (ip), vehicle: saline with Tween-80.

For the compound `O=C(O)C(=O)Nc1ncn[nH]1`, the T/C reads like this: (dose: 6.25 mg/kg/injection, schedule: Q01DX009 (ip), vehicle: Klucel (hydroxypropylcellulose) (HPC)) 104 % of control; (dose: 12.5 mg/kg/injection, schedule: Q01DX005 (ip), vehicle: Klucel (hydroxypropylcellulose) (HPC)) 102 % of control; (dose: 12.5 mg/kg/injection, schedule: Q01DX009 (ip), vehicle: Klucel (hydroxypropylcellulose) (HPC)) 96 % of control and 104 % of control; (dose: 25.0 mg/kg/injection, schedule: Q01DX009 (ip), vehicle: Klucel (hydroxypropylcellulose) (HPC)) 100 % of control and 104 % of control; (dose: 50.0 mg/kg/injection, schedule: Q01DX005 (ip), vehicle: Klucel (hydroxypropylcellulose) (HPC)) 105 % of control and 106 % of control; (dose: 50.0 mg/kg/injection, schedule: Q01DX009 (ip), vehicle: Klucel (hydroxypropylcellulose) (HPC)) 107 % of control and 114 % of control. Further, the T/C by setting is: (dose: 100.0 mg/kg/injection, schedule: Q04DX002 (ip), vehicle: Klucel (hydroxypropylcellulose) (HPC)) 96 % of control; (dose: 200.0 mg/kg/injection, schedule: Q04DX002 (ip), vehicle: Klucel (hydroxypropylcellulose) (HPC)) 98 % of control.
Consider `Cc1c(C)c(NC(=O)N(CCCl)N=O)c(C)c(C)c1NC(=O)N(CCCl)N=O`, for which the T/C (dose: 15.5 mg/kg/injection, schedule: Q01DX001 (ip), vehicle: other) is 120 % of control; the T/C (dose: 62.0 mg/kg/injection, schedule: Q01DX001 (ip), vehicle: other) was 152 % of control; the T/C (dose: 125.0 mg/kg/injection, schedule: Q01DX001 (ip), vehicle: other) was 159 % of control and 160 % of control and 207 % of control; the T/C (dose: 250.0 mg/kg/injection, schedule: Q01DX001 (ip), vehicle: other) was 203 % of control and 211 % of control and 252 % of control; the T/C (dose: 375.0 mg/kg/injection, schedule: Q01DX001 (ip), vehicle: other) was 237 % of control; the T/C (dose: 500.0 mg/kg/injection, schedule: Q01DX001 (ip), vehicle: other) is 223 % of control and 283 % of control. The T/C (dose: 501.0 mg/kg/injection, schedule: Q01DX001 (ip), vehicle: other) is 115 % of control; the T/C (dose: 750.0 mg/kg/injection, schedule: Q01DX001 (ip), vehicle: other) is 151 % of control and 238 % of control; the T/C (dose: 1000.0 mg/kg/injection, schedule: Q01DX001 (ip), vehicle: other) is 190 % of control.
As to `CN(C)P(N(C)C)N(C)C`, the T/C runs as follows: (dose: 50.0 mg/kg/injection, schedule: Q01DX001 (ip), vehicle: saline) 104 % of control; under setting [1], 95 % of control; under setting [2], 93 % of control; under setting [3], 101 % of control.
`Cc1cc(Nc2ccc(C)c(Cl)c2)nc(N)n1`: the T/C (dose: 100.0 mg/kg/injection, schedule: Q01DX Z (ip), vehicle: methylcellulose (MC)) was 89 % of control.
Consider `CCCCC(NC(=O)CNC(=O)CNC(=O)OCc1ccccc1)C(=O)O` (stereo not drawn) (Cbz-Gly-Gly-[ξNle]-OH), for which the T/C is, setting by setting: (dose: 100.0 mg/kg/injection, schedule: Q04DX003 (ip), vehicle: Klucel (hydroxypropylcellulose) (HPC)) 108 % of control; (dose: 200.0 mg/kg/injection, schedule: Q04DX003 (ip), vehicle: Klucel (hydroxypropylcellulose) (HPC)) 104 % of control; (dose: 400.0 mg/kg/injection, schedule: Q04DX003 (ip), vehicle: Klucel (hydroxypropylcellulose) (HPC)) 96 % of control.
In the case of `NC(=O)CN1C(=O)C2C3CCC(C3)C2C1=O` (centres undefined), the T/C runs as follows: under setting [4], 107 % of control; under setting [5], 107 % of control; under setting [6], 107 % of control.
With `O=c1c2cccc3c2-c2c4c(cccc14)cc1cccc(c3=O)c21`, the T/C by setting is: under setting [4], 94 % of control; under setting [5], 89 % of control; under setting [6], 100 % of control.
Consider `Cc1ncc(CCO)c(CO)c1O`, for which the T/C was 104 % of control under setting [1], 101 % of control under setting [2] and 106 % of control under setting [3].
As to `Nc1ccc(OC(=O)Nc2ccc(O)cc2)cc1`, the T/C by setting is: (dose: 53.0 mg/kg/injection, schedule: Q01DX Z (ip), vehicle: other) 94 % of control; (dose: 80.0 mg/kg/injection, schedule: Q01DX Z (ip), vehicle: other) 97 % of control; (dose: 80.0 mg/kg/injection, schedule: Q01DX Z (ip), vehicle: saline) 89 % of control; (dose: 120.0 mg/kg/injection, schedule: Q01DX Z (ip), vehicle: other) 105 % of control; (dose: 180.0 mg/kg/injection, schedule: Q01DX Z (ip), vehicle: other) 100 % of control; (dose: 180.0 mg/kg/injection, schedule: Q01DX Z (ip), vehicle: saline) 92 % of control. Besides, the T/C runs as follows: (dose: 270.0 mg/kg/injection, schedule: Q01DX Z (ip), vehicle: other) 102 % of control; (dose: 270.0 mg/kg/injection, schedule: Q01DX Z (ip), vehicle: saline) 93 % of control; (dose: 404.0 mg/kg/injection, schedule: Q01DX Z (ip), vehicle: other) 100 % of control; (dose: 405.0 mg/kg/injection, schedule: Q01DX Z (ip), vehicle: saline) 92 % of control.
Turning to `N=C(N)SCc1ccc(Cl)cc1`, the T/C is 98 % of control (dose: 25.0 mg/kg/injection, schedule: Q04DX002 (ip), vehicle: saline); 94 % of control (dose: 50.0 mg/kg/injection, schedule: Q04DX002 (ip), vehicle: saline); 101 % of control (dose: 100.0 mg/kg/injection, schedule: Q04DX002 (ip), vehicle: saline).
In the case of `CCOC(=O)c1c[nH]c2cc(OCC(C)C)c(OCC(C)C)cc2c1=O`, the T/C (dose: 100.0 mg/kg/injection, schedule: Q01DX001 (ip), vehicle: saline with Tween-80) was 104 % of control; the T/C (dose: 200.0 mg/kg/injection, schedule: Q01DX001 (ip), vehicle: saline with Tween-80) was 100 % of control; the T/C (dose: 400.0 mg/kg/injection, schedule: Q01DX001 (ip), vehicle: saline with Tween-80) was 86 % of control.
With `CC(=O)Nc1ccc(OCCOC(=O)Nc2ccc(Cl)c(C(F)(F)F)c2)cc1`, the T/C runs as follows: (dose: 12.5 mg/kg/injection, schedule: Q01DX009 (ip), vehicle: carboxymethylcellulose (CMC)) 95 % of control and 100 % of control; (dose: 25.0 mg/kg/injection, schedule: Q01DX009 (ip), vehicle: carboxymethylcellulose (CMC)) 95 % of control and 97 % of control; (dose: 25.0 mg/kg/injection, schedule: Q04DX002 (ip), vehicle: carboxymethylcellulose (CMC)) 92 % of control and 93 % of control; (dose: 50.0 mg/kg/injection, schedule: Q04DX002 (ip), vehicle: carboxymethylcellulose (CMC)) 95 % of control and 90 % of control; (dose: 100.0 mg/kg/injection, schedule: Q01DX001 (ip), vehicle: carboxymethylcellulose (CMC)) 97 % of control and 101 % of control; (dose: 100.0 mg/kg/injection, schedule: Q04DX003 (ip), vehicle: carboxymethylcellulose (CMC)) 92 % of control and 101 % of control. The T/C reads like this: (dose: 200.0 mg/kg/injection, schedule: Q01DX001 (ip), vehicle: carboxymethylcellulose (CMC)) 97 % of control and 102 % of control; (dose: 200.0 mg/kg/injection, schedule: Q04DX002 (ip), vehicle: carboxymethylcellulose (CMC)) 94 % of control; (dose: 200.0 mg/kg/injection, schedule: Q04DX003 (ip), vehicle: carboxymethylcellulose (CMC)) 92 % of control; (dose: 400.0 mg/kg/injection, schedule: Q01DX001 (ip), vehicle: carboxymethylcellulose (CMC)) 97 % of control and 87 % of control; (dose: 400.0 mg/kg/injection, schedule: Q01DX009 (ip), vehicle: carboxymethylcellulose (CMC)) 88 % of control and 90 % of control; (dose: 400.0 mg/kg/injection, schedule: Q04DX002 (ip), vehicle: carboxymethylcellulose (CMC)) 94 % of control and 91 % of control. The T/C (dose: 400.0 mg/kg/injection, schedule: Q04DX003 (ip), vehicle: carboxymethylcellulose (CMC)) was 92 % of control and 97 % of control.
In the case of `Cc1nnc(NS(=O)(=O)c2ccc(N=Nc3c(N)nc(N)[nH]c3=O)cc2)s1`, the T/C (dose: 5.0 mg/kg/injection, schedule: Q01DX001 (ip), vehicle: saline) was 105 % of control; the T/C (dose: 10.0 mg/kg/injection, schedule: Q01DX001 (ip), vehicle: saline) is 102 % of control; the T/C (dose: 20.0 mg/kg/injection, schedule: Q01DX001 (ip), vehicle: saline) is 98 % of control; the T/C (dose: 40.0 mg/kg/injection, schedule: Q01DX001 (ip), vehicle: saline) was 102 % of control.
For `C[As](C)Sc1ccnc(S[As](C)C)n1`, the T/C is 102 % of control (dose: 100.0 mg/kg/injection, schedule: Q01DX009 (ip), vehicle: saline with Tween-80); 96 % of control under setting [4]; 107 % of control (dose: 200.0 mg/kg/injection, schedule: Q01DX009 (ip), vehicle: saline with Tween-80); 96 % of control under setting [5].
Consider `O=C(O)/C=C/C(=O)Nc1ccc(NC(=O)/C=C/C(=O)O)cc1`, for which the T/C by setting is: under setting [4], 98 % of control; under setting [5], 95 % of control; under setting [6], 96 % of control.
